{
  "source": "patent US20180185408A1",
  "about": "“ANTIFUNGAL NYLON-3 POLYMERS AND COMBINATION THERAPY USING THEM TO TREAT FUNGAL INFECTIONS” (priority 2016, published 2018)",
  "tested_on": "Cryptococcus neoformans",
  "test": "MIC by broth microdilution (CLSI M27-A3)",
  "assay_type": "cell-based",
  "details": "Cryptococcus neoformans, Resistance FLU",
  "data": [
    {"smiles": "OC(Cn1cncn1)(Cn1cncn1)c1ccc(F)cc1F", "note": "[FLC, fluconazole]", "values": [
      {"measurement": "MIC50", "setting": "Cryptococcus neoformans CN2", "value": "> 64", "unit": "mg/L"},
      {"measurement": "MIC50", "setting": "Cryptococcus neoformans CN3", "value": "> 64", "unit": "mg/L"}
    ]}
  ]
}
